Data as given in patent US5602101A, “Antithrombotic agents” (priority 1994, dated 1997).

Biological target: T1, Human plasmin (Homo sapiens, UniProt P00747)
T1 construct: Human plasmin is purchased from Boehringer Mannheim, Indianapolis, Ind; purchased Boehringer Mannheim, Indianapolis, Ind
Assay: Serine protease inhibition, plasmin (chromogenic substrate), Kass
Assay type: biochemical
Settings: substrate H-D-Val-Leu-Lys-p-nitroanilide
Protocol: (§1) The assay is carried out by mixing 50 μl buffer (0.03M Tris, 0.15M NaCl, pH 7.4), 25 μl of human thrombin solution (purified human thrombin Enzyme Research Laboratories, South Bend, Ind.) at 8 NIH units/ml and 25 μl of test compound in a solvent (50% aqueous methanol (v:v)). Then 150 μl of an aqueous solution of the chromogenic substrate (at 0.25 mg/ml) are added and the rates of hydrolysis of the substrate are measured by monitoring the reactions at 405 nm for the release of p-nitroaniline. Standard curves are constructed by plotting free thrombin concentration against hydrolysis rate. The hydrolysis rates observed with test compounds are then converted to "free thrombin" values in the respective assays by use of the standard curves. The bound thrombin (bound to test compound) is calculated by subtracting the amount of free thrombin observed in each assay from the known initial amount of thrombin used in the assay. The amount of free inhibitor in each assay is calculated by subtracting the number of moles of bound thrombin from the number of moles of added inhibitor (test compound).
(§2) Kass is calculated for a range of concentrations of test compounds and the mean value is reported in units of liter per mole.
(§3) By substantially following the procedures described above for human thrombin, and using other human blood coagulation system serine proteases, and using fibrinolytic system serine proteases, with the appropriate chromogenic substrate, identified below, selectivity of the compounds of the present invention with respect to the coagulation factor serine proteases and to the fibrinolytic serine proteases are evaluated as well as their substantial lack of interference with human plasma clot fibrinolysis.
(§4) Human factors X, Xa, IXa, XIa, and xIIa are purchased from Enzyme Research Laboratories, South Bend, Ind.; human urokinase from Leo Pharmaceuticals, Denmark; and recombinant activated Protein C (aPC) is prepared at Eli Lilly and Co. substantially according to U.S. Pat. No. 4,981,952 incorporated by reference herein in its entirety. Chromogenic substrates: N-Benzoyl-Ile-Glu-Gly-Arg-p-nitroanilide (for factor Xa); N-Cbz-D-Arg-Gly-Arg-p-nitroanilide (for factor IXa assay as the factor Xa substrate) pyroglutamyl-Pro-Arg-p-nitroanilide (for factor XIa and for aPC); H-D-Pro-Phe-Arg-p-nitroanilide (for factor XIIa); and pyroglutamyl-Gly-Arg-p-nitroanilide (for urokinase); are purchased from KabiVitrum, Stockholm, Sweden, or from Midwest Biotech, Fishers, Indiana. Bovine trypsin is purchased from Worthington Biochemicals, Freehold, N.J., and human plasma kallikrein from Kabi Vitrum, Stockholm, Sweden. N-Benzoyl-Phe-Val-Arg-p-nitroanilide, the substrate for human thrombin and for trypsin, is synthesized according to procedures described above for the compounds of the present invention, known methods of peptide coupling from commercially available reactants, or was purchased from Midwest Biotech, Fishers, Ind. Human plasmin is purchased from Boehringer Mannheim, Indianapolis, Ind.; nt-PA is purchased as single chain activity reference from American Diagnostics, Greenwich, Conn.; modified-t-PA6 (mt-PA6) is prepared at Eli Lilly and Company by procedure known in the art (See, Burck, et al., J. Biol. Chem., 265, […] (1990). Plasmin chromogenic substrate H-D-Val-Leu-Lys-p-nitroanilide and tissue plasminegen activator (t-PA) substrate H-D-Ile-Pro-Arg-p-nitroanilide are purchased from Kabi Vitrum, Stockholm, Sweden.

T1 sequence (P00747 581-810 limits assumed): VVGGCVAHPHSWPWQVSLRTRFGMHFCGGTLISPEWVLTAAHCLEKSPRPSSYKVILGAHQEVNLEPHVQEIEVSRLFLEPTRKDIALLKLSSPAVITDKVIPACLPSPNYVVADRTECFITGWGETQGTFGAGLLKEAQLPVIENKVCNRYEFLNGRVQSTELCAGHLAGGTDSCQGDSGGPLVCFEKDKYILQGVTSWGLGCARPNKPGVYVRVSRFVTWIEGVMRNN
T1 sequence (P00747 97-580 partner limits assumed): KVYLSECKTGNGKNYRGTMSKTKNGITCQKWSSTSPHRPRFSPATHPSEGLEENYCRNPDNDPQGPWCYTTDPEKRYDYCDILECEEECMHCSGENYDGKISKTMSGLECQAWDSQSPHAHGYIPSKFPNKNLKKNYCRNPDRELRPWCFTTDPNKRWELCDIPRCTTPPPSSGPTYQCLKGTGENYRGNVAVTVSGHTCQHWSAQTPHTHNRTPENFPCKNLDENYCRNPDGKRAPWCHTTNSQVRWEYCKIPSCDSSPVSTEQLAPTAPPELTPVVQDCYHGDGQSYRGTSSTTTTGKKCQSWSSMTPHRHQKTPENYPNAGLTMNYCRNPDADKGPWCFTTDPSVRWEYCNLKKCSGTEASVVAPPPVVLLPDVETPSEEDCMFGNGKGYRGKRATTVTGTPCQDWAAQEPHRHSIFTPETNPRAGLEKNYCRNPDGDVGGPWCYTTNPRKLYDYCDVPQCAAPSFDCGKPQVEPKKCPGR

SMILES	Enzyme Kass, Plasmin [L/mol × 10^6]
Cl.NC(N)=NCCCC(C=O)NC(=O)C1CCCN1C(=O)C(CC1CCCCC1)NC(=O)c1ccc2ccccc2n1 [Example 6, N-(quinolinyl-2-carbonyl)-D-Cha-Pro-Arg-H-HCl]	2.5
COc1ccc(OC)c(S(=O)(=O)N[C@H](Cc2ccccc2)C(=O)N2CCC[C@H]2C(=O)N[C@H](C=O)CCCNC(=N)N)c1.Cl [Example 15, 2,5-(MeO)2 -PhSO2 -D-Phe-Pro-Arg-H-HCl]	9.5
Cc1noc(C)c1S(=O)(=O)N[C@H](Cc1ccccc1)C(=O)N1CCC[C@H]1C(=O)N[C@H](C=O)CCCNC(=N)N.Cl [Example 16, 3,5-Me-4-isoxazolyl-SO2 -D-Phe-Pro-Arg-H.HCl]	18

System: Human Plasma
Assay: Anticoagulation in human plasma, prothrombin time (PT)
Assay type: biochemical
Settings: concentration required to double the PT
Protocol: (§5) Dog plasma and rat plasma are obtained from conscious mixed-breed hounds (either sex, Hazelton-LRE, Kalamazoo, Mich., U.S.A.) or from anesthetized male Sprague-Dawley rats (Harlan Sprague-Dawley, Inc., Indianapolis, Ind., U.S.A.) by venipuncture into 3.8 percent citrate. Fibrinogen is prepared from in-date ACD human blood as the fraction I-2 according to previous procedures and specifications. Smith, Biochem. Chem. […] Human fibrinogen is also purchased as 98 percent pure/plasmin free from American Diagnostics, Greenwich, Conn. Coagulation reagents ACTIN, Thromboplastin, and Human plasma are from Baxter Healthcare Corp., Dade Division, Miami, Fla. Bovine thrombin from Parke-Davis (Ann Arbor, Mich.) is used for coagulation assays in plasma. Coagulation assay procedures are as previously described. Smith, et al., Thrombosis Research, 5, 163-174 (1988). A CoAScreener coagulation instrument (American LABor, Inc.) is used for all coagulation assay measurements. The prothrombin time (PT) is measured by adding 0.05 ml saline and 0.05 ml Thromboplastin-C reagent to 0.05 ml test plasma. The activated partial thromboplastin time (APTT) is measured by incubation of 0.05 ml test plasma with 0.05 ml Actin reagent for 120 seconds followed by 0.05 ml CaCl2 (0.02M). […] The compounds of formula I are added to human or animal plasma over a wide range of concentrations to determine prolongation effects on the APTT, PT, and TT assays. Linear extrapolations are performed to estimate the concentrations required to double the clotting time for each assay.

SMILES	2 × Clotting time, PT
Cl.NC(N)=NCCCC(C=O)NC(=O)C1CCCN1C(=O)C(CC1CCCCC1)NC(=O)c1ccc2ccccc2n1 [Example 6, N-(quinolinyl-2-carbonyl)-D-Cha-Pro-Arg-H-HCl]	2,700 ng/ML
COc1ccc(OC)c(S(=O)(=O)N[C@H](Cc2ccccc2)C(=O)N2CCC[C@H]2C(=O)N[C@H](C=O)CCCNC(=N)N)c1.Cl [Example 15, 2,5-(MeO)2 -PhSO2 -D-Phe-Pro-Arg-H-HCl]	2,000 ng/ML
Cc1noc(C)c1S(=O)(=O)N[C@H](Cc1ccccc1)C(=O)N1CCC[C@H]1C(=O)N[C@H](C=O)CCCNC(=N)N.Cl [Example 16, 3,5-Me-4-isoxazolyl-SO2 -D-Phe-Pro-Arg-H.HCl]	1,300 ng/ML

System: Human Plasma
Assay: Anticoagulation in human plasma, thrombin time (TT)
Assay type: biochemical
Settings: concentration required to double the thrombin time
Protocol: as §5

SMILES	2 × Clotting time, TT [ng/mL]
Cl.NC(N)=NCCCC(C=O)NC(=O)C1CCCN1C(=O)C(CC1CCCCC1)NC(=O)c1ccc2ccccc2n1 [Example 6, N-(quinolinyl-2-carbonyl)-D-Cha-Pro-Arg-H-HCl]	97
COc1ccc(OC)c(S(=O)(=O)N[C@H](Cc2ccccc2)C(=O)N2CCC[C@H]2C(=O)N[C@H](C=O)CCCNC(=N)N)c1.Cl [Example 15, 2,5-(MeO)2 -PhSO2 -D-Phe-Pro-Arg-H-HCl]	92
Cc1noc(C)c1S(=O)(=O)N[C@H](Cc1ccccc1)C(=O)N1CCC[C@H]1C(=O)N[C@H](C=O)CCCNC(=N)N.Cl [Example 16, 3,5-Me-4-isoxazolyl-SO2 -D-Phe-Pro-Arg-H.HCl]	33

System: Human Plasma
Assay: Anticoagulation in human plasma, activated partial thromboplastin time (APTT)
Assay type: biochemical
Settings: concentration required to double the APTT
Protocol: as §5

SMILES	2 × Clotting time, APTT
Cl.NC(N)=NCCCC(C=O)NC(=O)C1CCCN1C(=O)C(CC1CCCCC1)NC(=O)c1ccc2ccccc2n1 [Example 6, N-(quinolinyl-2-carbonyl)-D-Cha-Pro-Arg-H-HCl]	1,400 ng/ML
COc1ccc(OC)c(S(=O)(=O)N[C@H](Cc2ccccc2)C(=O)N2CCC[C@H]2C(=O)N[C@H](C=O)CCCNC(=N)N)c1.Cl [Example 15, 2,5-(MeO)2 -PhSO2 -D-Phe-Pro-Arg-H-HCl]	550 ng/mL
Cc1noc(C)c1S(=O)(=O)N[C@H](Cc1ccccc1)C(=O)N1CCC[C@H]1C(=O)N[C@H](C=O)CCCNC(=N)N.Cl [Example 16, 3,5-Me-4-isoxazolyl-SO2 -D-Phe-Pro-Arg-H.HCl]	430 ng/mL

Biological target: T2, tissue plasminogen activator (t-PA) (Homo sapiens, UniProt P00750)
T2 construct: purchased American Diagnostics, Greenwich, Conn
Assay: Serine protease inhibition, t-PA (chromogenic substrate), Kass
Assay type: biochemical
Settings: substrate H-D-Ile-Pro-Arg-p-nitroanilide
Protocol: as §1, §2, §3, §4

T2 sequence (P00750 36-562): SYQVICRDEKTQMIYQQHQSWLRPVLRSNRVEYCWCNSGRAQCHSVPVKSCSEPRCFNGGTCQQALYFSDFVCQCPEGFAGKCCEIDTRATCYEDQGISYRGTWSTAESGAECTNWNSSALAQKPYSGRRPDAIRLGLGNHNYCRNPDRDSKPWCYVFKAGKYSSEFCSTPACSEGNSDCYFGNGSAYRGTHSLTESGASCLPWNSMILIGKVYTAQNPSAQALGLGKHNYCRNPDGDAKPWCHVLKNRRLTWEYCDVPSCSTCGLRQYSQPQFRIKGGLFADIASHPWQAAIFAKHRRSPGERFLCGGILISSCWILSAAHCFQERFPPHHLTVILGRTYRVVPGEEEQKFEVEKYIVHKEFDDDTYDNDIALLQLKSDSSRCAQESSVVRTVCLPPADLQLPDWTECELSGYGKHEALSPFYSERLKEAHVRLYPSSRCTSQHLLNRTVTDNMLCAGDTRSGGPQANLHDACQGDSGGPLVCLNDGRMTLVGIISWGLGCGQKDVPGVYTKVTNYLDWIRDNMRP

SMILES	Enzyme Kass, t-Pa [L/mol × 10^6]
Cl.NC(N)=NCCCC(C=O)NC(=O)C1CCCN1C(=O)C(CC1CCCCC1)NC(=O)c1ccc2ccccc2n1 [Example 6, N-(quinolinyl-2-carbonyl)-D-Cha-Pro-Arg-H-HCl]	0.088
COc1ccc(OC)c(S(=O)(=O)N[C@H](Cc2ccccc2)C(=O)N2CCC[C@H]2C(=O)N[C@H](C=O)CCCNC(=N)N)c1.Cl [Example 15, 2,5-(MeO)2 -PhSO2 -D-Phe-Pro-Arg-H-HCl]	1.5
Cc1noc(C)c1S(=O)(=O)N[C@H](Cc1ccccc1)C(=O)N1CCC[C@H]1C(=O)N[C@H](C=O)CCCNC(=N)N.Cl [Example 16, 3,5-Me-4-isoxazolyl-SO2 -D-Phe-Pro-Arg-H.HCl]	2.7

Biological target: T3, Bovine trypsin (Bos taurus, UniProt P00760)
T3 construct: Bovine trypsin is purchased from Worthington Biochemicals, Freehold, N.J; purchased Worthington Biochemicals, Freehold, N.J
T3 sequence (P00760 24-246): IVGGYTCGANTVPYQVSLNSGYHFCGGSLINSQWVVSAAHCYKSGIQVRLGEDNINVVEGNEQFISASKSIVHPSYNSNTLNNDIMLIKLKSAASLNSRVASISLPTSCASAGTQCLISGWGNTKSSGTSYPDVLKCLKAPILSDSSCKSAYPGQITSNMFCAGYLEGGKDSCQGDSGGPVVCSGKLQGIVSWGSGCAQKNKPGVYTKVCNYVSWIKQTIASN
Assay: Serine protease inhibition, trypsin (chromogenic substrate), Kass
Assay type: biochemical
Settings: substrate N-Benzoyl-Phe-Val-Arg-p-nitroanilide
Protocol: as §1, §2, §3, §4

SMILES	Enzyme Kass, Trypsin [L/mol × 10^6]
Cl.NC(N)=NCCCC(C=O)NC(=O)C1CCCN1C(=O)C(CC1CCCCC1)NC(=O)c1ccc2ccccc2n1 [Example 6, N-(quinolinyl-2-carbonyl)-D-Cha-Pro-Arg-H-HCl]	2.5
COc1ccc(OC)c(S(=O)(=O)N[C@H](Cc2ccccc2)C(=O)N2CCC[C@H]2C(=O)N[C@H](C=O)CCCNC(=N)N)c1.Cl [Example 15, 2,5-(MeO)2 -PhSO2 -D-Phe-Pro-Arg-H-HCl]	150
Cc1noc(C)c1S(=O)(=O)N[C@H](Cc1ccccc1)C(=O)N1CCC[C@H]1C(=O)N[C@H](C=O)CCCNC(=N)N.Cl [Example 16, 3,5-Me-4-isoxazolyl-SO2 -D-Phe-Pro-Arg-H.HCl]	200

Biological target: T4, factor Xa (Homo sapiens, UniProt P00742)
T4 construct: Human factors X, Xa, IXa, XIa, and xIIa are purchased from Enzyme Research Laboratories; purchased Enzyme Research Laboratories, South Bend, Ind
Assay: Serine protease inhibition, factor Xa (chromogenic substrate), Kass
Assay type: biochemical
Settings: substrate N-Benzoyl-Ile-Glu-Gly-Arg-p-nitroanilide
Protocol: as §1, §2, §3, §4

T4 sequence (P00742 235-488 limits assumed): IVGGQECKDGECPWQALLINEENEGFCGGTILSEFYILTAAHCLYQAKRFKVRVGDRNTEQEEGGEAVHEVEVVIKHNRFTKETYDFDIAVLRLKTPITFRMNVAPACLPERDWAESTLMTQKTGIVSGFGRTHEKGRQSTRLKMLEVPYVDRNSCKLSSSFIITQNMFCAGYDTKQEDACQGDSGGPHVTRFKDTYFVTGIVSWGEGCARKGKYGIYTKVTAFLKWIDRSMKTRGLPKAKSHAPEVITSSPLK
T4 sequence (P00742 41-179 partner limits assumed): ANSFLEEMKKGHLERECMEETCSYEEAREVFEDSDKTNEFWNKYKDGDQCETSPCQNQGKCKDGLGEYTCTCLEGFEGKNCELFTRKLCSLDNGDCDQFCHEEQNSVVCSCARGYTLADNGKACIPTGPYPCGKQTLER

SMILES	Enzyme Kass, Xa [L/mol × 10^6]
Cl.NC(N)=NCCCC(C=O)NC(=O)C1CCCN1C(=O)C(CC1CCCCC1)NC(=O)c1ccc2ccccc2n1 [Example 6, N-(quinolinyl-2-carbonyl)-D-Cha-Pro-Arg-H-HCl]	0.83
COc1ccc(OC)c(S(=O)(=O)N[C@H](Cc2ccccc2)C(=O)N2CCC[C@H]2C(=O)N[C@H](C=O)CCCNC(=N)N)c1.Cl [Example 15, 2,5-(MeO)2 -PhSO2 -D-Phe-Pro-Arg-H-HCl]	8.8
Cc1noc(C)c1S(=O)(=O)N[C@H](Cc1ccccc1)C(=O)N1CCC[C@H]1C(=O)N[C@H](C=O)CCCNC(=N)N.Cl [Example 16, 3,5-Me-4-isoxazolyl-SO2 -D-Phe-Pro-Arg-H.HCl]	11

Biological target: T5, human thrombin (Homo sapiens, UniProt P00734)
T5 construct: purified human thrombin Enzyme Research Laboratories, South Bend, Ind; purchased Enzyme Research Laboratories, South Bend, Ind
Assay: Inhibition of amidase activity of thrombin (chromogenic substrate), Kass
Assay type: biochemical
Settings: substrate N-benzoyl-Phe-Val-Arg-p-nitroanilide, pH 7.4
Protocol: as §1
The Kass value is the hypothetical equilibrium constant for the reaction between thrombin and the test compound (I). [drawing 53]
as §2

SMILES	Enzyme Kass, Human Thrombin [L/mol × 10^6]
Cl.NC(N)=NCCCC(C=O)NC(=O)C1CCCN1C(=O)C(CC1CCCCC1)NC(=O)c1ccc2ccccc2n1 [Example 6, N-(quinolinyl-2-carbonyl)-D-Cha-Pro-Arg-H-HCl]	200
COc1ccc(OC)c(S(=O)(=O)N[C@H](Cc2ccccc2)C(=O)N2CCC[C@H]2C(=O)N[C@H](C=O)CCCNC(=N)N)c1.Cl [Example 15, 2,5-(MeO)2 -PhSO2 -D-Phe-Pro-Arg-H-HCl]	200
Cc1noc(C)c1S(=O)(=O)N[C@H](Cc1ccccc1)C(=O)N1CCC[C@H]1C(=O)N[C@H](C=O)CCCNC(=N)N.Cl [Example 16, 3,5-Me-4-isoxazolyl-SO2 -D-Phe-Pro-Arg-H.HCl]	260
